{"source": "patent US5041441A", "about": "“Method of chemotherapy using 1-phenyl-2-decanoylamino-3-morpholino-1-propanol” (The Regents of the University of Michigan, priority 1988, dated 1991)", "key": {"[1]": {"test_system": "Ehrlich ascites tumor cells (EATC)", "assay": "Antitumor activity in mice inoculated i.p. with Ehrlich ascites tumor cells", "assay_type": "in vivo", "details": "for Median T/C ratio / Number of cured mice at 60 days / Number of cured mice at 90 days / Surviving at 60 days (cured mice and mice bearing a solid tumor) / Surviving at 90 days (cured mice and mice bearing a solid tumor): acetate salt i.p.; for Surviving at 10 days / Body weight change (mean, end of 10 days): mouse, in vivo, ip", "description": "Male mice of the ICR (Swiss Hsd) strain from Harlan--Sprague Dawley (Indianapolis, Ind.) were injected intraperitoneal with saline containing 2×10^6 Ehrlich ascites tumor cells (EATC) on day 0. […] Treatment began 24 hours later with intraperitoneal injections of saline or inhibitor, either as the acetate salt or as the hydrochloride salt. The inhibitor was dissolved in 40° C. saline and injected at 10 μl/g body weight. In the case of drugs that were difficult to dissolve, e.g. the hydrochlorides, a non-ionic, low toxicity detergent was included to emulsify the drug, making it suitable for injection. Two cages of mice were assigned to each control or experimental group and fed standard lab chow. In almost all cases, the mice were injected daily for a total of 10 doses.\nThe 1-tailed Student t-test for unpaired samples was used for statistical analysis.\nThe experimental procedure set forth above was again followed with homologs of PDMP made from fatty acids of 10 to 18 carbon atom length. The compounds were not resolved into D- and L-forms but the threo stereomers were used as the hydrochlorides. All samples were emulsified in Myrj 52 (15 mg/kg)."}, "[2]": {"assay": "Toxicity test in normal, noncancerous mice", "assay_type": "in vivo", "description": "Ten normal, noncancerous mice were injected with D-threo-PDMP daily for 10 days, then killed 5 hours later with the results set forth in Table 4.\nThe preceding experiment was repeated in order to observe less evancescent responses: the mice were killed 40 hours after the last injection following 12 daily injections. Here, of the absolute weights, only the kidneys were statistically different in treated mice, 11% smaller (p less than 0.05%). Comparing the 40 hour and 5 hour experiments it seems likely that the liver weights renormalized faster than the kidneys, perhaps a reflection of faster glucolipid turnover.\nThis failure to harm the bone marrow and related systems compares favorably with the high toxicity of many antineoplastics."}, "[3]": {"target": "T1, glucosyltransferase (EATC enzyme) (Mus musculus, UniProt O88693)", "T1 construct": "Microsomes from EATC (0.50 mg protein) required 20 μM PDMP to reduce the glucosyltransferase activity in half; endogenous in cells; host or cells: Ehrlich ascites tumor cells (EATC), microsomes", "T1 sequence (O88693 1-394)": "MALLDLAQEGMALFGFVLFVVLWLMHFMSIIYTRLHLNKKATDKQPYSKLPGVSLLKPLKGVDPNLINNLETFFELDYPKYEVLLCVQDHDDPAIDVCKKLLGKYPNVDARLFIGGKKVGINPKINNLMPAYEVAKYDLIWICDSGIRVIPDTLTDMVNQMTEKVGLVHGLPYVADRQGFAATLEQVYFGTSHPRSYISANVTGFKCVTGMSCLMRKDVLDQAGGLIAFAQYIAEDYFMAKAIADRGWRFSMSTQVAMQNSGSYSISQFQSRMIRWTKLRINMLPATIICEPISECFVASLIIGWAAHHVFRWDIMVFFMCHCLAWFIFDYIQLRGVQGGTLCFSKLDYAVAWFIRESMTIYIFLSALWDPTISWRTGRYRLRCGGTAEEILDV", "assay": "Glucosyltransferase assay, microsomes from EATC", "assay_type": "biochemical", "description": "Evidence that D-threo-PDMP acts to inhibit GlcCer biosynthesis was provided as follows from assay of glucosyltransferase. Microsomes as source of enzyme were prepared by highspeed centrifugation and stored at -70° C. before use. The incubations were at 37° C. for 30 minutes with microsomes, ATP, liposomal octanoyl sphingosine, UDP-[^3 H]glu, Mg^2+, and dithioerythritol. Microsomes from EATC (0.50 mg protein) required 20 μM PDMP to reduce the glucosyltransferase activity in half. The microsomes from normal liver (72 μg protein) required 5 μM D-threo-PDMP. While the EATC enzyme seems to be less sensitive to the inhibitor, the intraperitoneal concentration of inhibitor is initially very high."}, "EATC": {"test_system": "EATC", "assay": "Rechallenge of surviving treated mice with EATC", "assay_type": "in vivo", "source_text": "Four mice who had survived 63 days post-inoculation were challenged with another 2×10^6 EATC. […] Normal mice of this age, like the younger ones, are readily attacked by EATC. We conclude that the mice have, in effect, been \"live-cell vaccinated\" with EATC plus PDMP."}, "[4]": {"details": "2 × 250 mg/kg/day, days 1-5, 1 × 150, days 6-10"}, "[5]": {"details": "100 mg/kg/day, 10 injections, killed 5 hours later"}}}
{"smiles": "CCCCCCCCCC(=O)N[C@H](CN1CCOCC1)[C@H](O)c1ccccc1", "note": "[D-threo-PDMP, 1-Phenyl-2-Decanoylamino-3-Morpholino-1-Propanol]", "values": [{"measurement": "Median T/C ratio", "setting": "[1]; 1 × 100 mg/kg/day, days 1-10", "result": 191, "unit": "%"}, {"measurement": "Number of cured mice at 60 days", "setting": "[1]; 1 × 100 mg/kg/day, days 1-10", "result": 4}, {"measurement": "Number of cured mice at 90 days", "setting": "[1]; 1 × 100 mg/kg/day, days 1-10", "result": 4}, {"measurement": "Surviving at 60 days (cured mice and mice bearing a solid tumor)", "setting": "[1]; 1 × 100 mg/kg/day, days 1-10", "result": 7}, {"measurement": "Surviving at 90 days (cured mice and mice bearing a solid tumor)", "setting": "[1]; 1 × 100 mg/kg/day, days 1-10, mice with solid tumors killed before 90 days", "result": 4}, {"measurement": "Median T/C ratio", "setting": "[1]; 1 × 150 mg/kg/day, days 1-10", "result": 319, "unit": "%"}, {"measurement": "Number of cured mice at 60 days", "setting": "[1]; 1 × 150 mg/kg/day, days 1-10", "result": 3}, {"measurement": "Number of cured mice at 90 days", "setting": "[1]; 1 × 150 mg/kg/day, days 1-10", "result": 3}, {"measurement": "Surviving at 60 days (cured mice and mice bearing a solid tumor)", "setting": "[1]; 1 × 150 mg/kg/day, days 1-10", "result": 7}, {"measurement": "Surviving at 90 days (cured mice and mice bearing a solid tumor)", "setting": "[1]; 1 × 150 mg/kg/day, days 1-10", "result": 5}, {"measurement": "Median T/C ratio", "setting": "[1]; 2 × 100 mg/kg/day, days 1-5", "result": 238, "unit": "%"}, {"measurement": "Number of cured mice at 60 days", "setting": "[1]; 2 × 100 mg/kg/day, days 1-5", "result": 3}, {"measurement": "Number of cured mice at 90 days", "setting": "[1]; 2 × 100 mg/kg/day, days 1-5", "result": 3}, {"measurement": "Surviving at 60 days (cured mice and mice bearing a solid tumor)", "setting": "[1]; 2 × 100 mg/kg/day, days 1-5", "result": 5}, {"measurement": "Surviving at 90 days (cured mice and mice bearing a solid tumor)", "setting": "[1]; 2 × 100 mg/kg/day, days 1-5, mice with solid tumors killed before 90 days", "result": 3}, {"measurement": "Median T/C ratio", "setting": "[1]; [4]", "result": 150, "unit": "%"}, {"measurement": "Number of cured mice at 60 days", "setting": "[1]; [4]", "result": 3}, {"measurement": "Number of cured mice at 90 days", "setting": "[1]; [4]", "result": 3}, {"measurement": "Surviving at 60 days (cured mice and mice bearing a solid tumor)", "setting": "[1]; [4]", "result": 5}, {"measurement": "Surviving at 90 days (cured mice and mice bearing a solid tumor)", "setting": "[1]; [4]", "result": 5}, {"measurement": "Percentage surviving for 60 days", "setting": "[1]; dose response test, 75 mg/kg", "result": 10, "unit": "%"}, {"measurement": "Percentage surviving for 60 days", "setting": "[1]; dose response test, 100 mg/kg", "result": 20, "unit": "%"}, {"measurement": "Percentage surviving for 60 days", "setting": "[1]; dose response test, 125 mg/kg", "result": 50, "unit": "%"}, {"measurement": "Time of death compared with controls", "setting": "[1]; dose response test, 25 or 50 mg/kg", "result": "died at about the same time as the controls"}, {"measurement": "Mice still alive and healthy more than 5 months after inoculation", "setting": "[1]; dose response test, two most-heavily dosed groups", "result": 40, "unit": "%"}, {"measurement": "Surviving at 10 days", "setting": "[1]; 100 mg/kg/day", "result": "10/10"}, {"measurement": "Body weight change (mean, end of 10 days)", "setting": "[1]; 150 mg/kg/day", "result": -0.36, "unit": "g"}, {"measurement": "Surviving at 10 days", "setting": "[1]; 150 mg/kg/day", "result": "10/10"}, {"measurement": "Body weight change (mean, end of 10 days)", "setting": "[1]; 250 mg/kg/day", "result": -3.49, "unit": "g"}, {"measurement": "Surviving at 10 days", "setting": "[1]; 250 mg/kg/day", "result": "8/9"}, {"measurement": "Mice completely cured", "setting": "[1]; variety of regimens", "result": "About 30%"}, {"measurement": "Average body weight gain of treated mice", "setting": "[2]; 100 mg/kg/day, 10 injections, controls gained 4.5 g", "result": 2.1, "unit": "g"}, {"measurement": "Body weight smaller than controls", "setting": "[2]; [5]", "result": 8, "unit": "%"}, {"measurement": "Brain Weight", "setting": "[2]; [5]", "result": 0.444, "unit": "g"}, {"measurement": "Brain Weight (% of body)", "setting": "[2]; [5]", "result": "1.67 % of body"}, {"measurement": "Kidney Weight", "setting": "[2]; [5]", "result": 0.329, "unit": "g"}, {"measurement": "Kidney Weight (% of body)", "setting": "[2]; [5]", "result": "1.24 % of body"}, {"measurement": "Kidney weight smaller than controls", "setting": "[2]; [5]", "result": 17, "unit": "%"}, {"measurement": "Liver Weight", "setting": "[2]; [5]", "result": 1.32, "unit": "g"}, {"measurement": "Liver Weight (% of body)", "setting": "[2]; [5]", "result": "4.97 % of body"}, {"measurement": "Liver weight smaller than controls", "setting": "[2]; [5]", "result": 18, "unit": "%"}, {"measurement": "Spleen Weight", "setting": "[2]; [5]", "result": 0.095, "unit": "g"}, {"measurement": "Spleen Weight (% of body)", "setting": "[2]; [5]", "result": "0.36 % of body"}, {"measurement": "Spleen size compared with controls", "setting": "[2]; [5]", "result": "slightly but not significantly smaller"}, {"measurement": "Body Weight", "setting": "[2]; 100 mg/kg/day, 10 injections, killed 5 hours later, initial mean 24.4 g", "result": 26.5, "unit": "g"}, {"measurement": "Brain weight smaller than controls", "setting": "[2]; 100 mg/kg/day, 10 injections, killed 5 hours later, p less than 0.025", "result": 4.6, "unit": "%"}, {"measurement": "Cell counts on orbital blood (RBC, WBC, differential monocytes, lymphocytes, eosinophiles, neutrophils)", "setting": "[2]; 12 daily injections", "result": "no abnormalities"}, {"measurement": "Kidney weight (absolute) smaller than controls", "setting": "[2]; 12 daily injections, killed 40 hours after the last injection", "result": 11, "unit": "%"}, {"measurement": "IC50", "setting": "[3]", "result": 20, "unit": "µM"}, {"measurement": "Survivors developing no EATC after challenge", "setting": "EATC; five survivors challenged 135 and 100 days after inoculation, greater than 5 months of observation", "result": "four of them developed no EATC"}, {"measurement": "Effect of reinoculation with 2×10^6 EATC", "setting": "EATC; four mice surviving 63 days post-inoculation, observed greater than 7 months more", "result": "no effects of the reinoculation"}]}
